Results published in PubChem BioAssay AID248 (DTP/NCI, 2004).
Several values for one entry are separate records, joined by “and”; a condition that tells them apart may be missing. Identical values can stand only once. Toxic doses and inconclusive results are not listed. Rule as the data show it: active = T/C of 150% or more; inactive = T/C below 125%.

Test system: L1210 leukemia ip in BDF1 mice, survival T/C
Experiment: NCI In Vivo Anticancer Drug Screen. Data for tumor model L1210 Leukemia (intraperitoneal) in B6D2F1 (BDF1) mice
Details: endpoint: mean survival time, higher = longer survival
How it was run: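 Read-out is survival time, reported as the treated-group measurement over the vehicle-control measurement.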

[1] = dose: 100.0 mg/kg/injection, schedule: Q01DX001 (ip), vehicle: carboxymethylcellulose (CMC)
[2] = dose: 100.0 mg/kg/injection, schedule: Q01DX009 (ip), vehicle: carboxymethylcellulose (CMC)
[3] = dose: 200.0 mg/kg/injection, schedule: Q01DX001 (ip), vehicle: carboxymethylcellulose (CMC)
[4] = dose: 200.0 mg/kg/injection, schedule: Q01DX009 (ip), vehicle: carboxymethylcellulose (CMC)
[5] = dose: 400.0 mg/kg/injection, schedule: Q01DX001 (ip), vehicle: carboxymethylcellulose (CMC)
[6] = dose: 100.0 mg/kg/injection, schedule: Q01DX009 (ip), vehicle: Klucel (hydroxypropylcellulose) (HPC)
[7] = dose: 100.0 mg/kg/injection, schedule: Q04DX003 (ip), vehicle: Klucel (hydroxypropylcellulose) (HPC)
[8] = dose: 200.0 mg/kg/injection, schedule: Q01DX009 (ip), vehicle: Klucel (hydroxypropylcellulose) (HPC)
[9] = dose: 200.0 mg/kg/injection, schedule: Q04DX003 (ip), vehicle: Klucel (hydroxypropylcellulose) (HPC)
[10] = dose: 400.0 mg/kg/injection, schedule: Q01DX009 (ip), vehicle: Klucel (hydroxypropylcellulose) (HPC)
[11] = dose: 400.0 mg/kg/injection, schedule: Q04DX003 (ip), vehicle: Klucel (hydroxypropylcellulose) (HPC)
[12] = dose: 100.0 mg/kg/injection, schedule: Q01DX009 (ip), vehicle: saline with Tween-80
[13] = dose: 200.0 mg/kg/injection, schedule: Q01DX009 (ip), vehicle: saline with Tween-80
[14] = dose: 400.0 mg/kg/injection, schedule: Q01DX009 (ip), vehicle: saline with Tween-80
[15] = dose: 100.0 mg/kg/injection, schedule: Q01DX001 (ip), vehicle: saline
[16] = dose: 200.0 mg/kg/injection, schedule: Q01DX001 (ip), vehicle: saline
[17] = dose: 400.0 mg/kg/injection, schedule: Q01DX001 (ip), vehicle: saline

Measured: T/C

CCCCCCCCCCCCCCCC(=O)N(CCC)CCC
inactive: [1] 98 % of control | [2] 105 % of control and 90 % of control | dose: 100.0 mg/kg/injection, schedule: Q04DX002 (ip), vehicle: carboxymethylcellulose (CMC) 102 % of control | dose: 100.0 mg/kg/injection, schedule: Q04DX003 (ip), vehicle: carboxymethylcellulose (CMC) 102 % of control | [3] 99 % of control | [4] 100 % of control and 101 % of control | dose: 200.0 mg/kg/injection, schedule: Q04DX002 (ip), vehicle: carboxymethylcellulose (CMC) 94 % of control | dose: 200.0 mg/kg/injection, schedule: Q04DX003 (ip), vehicle: carboxymethylcellulose (CMC) 104 % of control | [5] 99 % of control | dose: 400.0 mg/kg/injection, schedule: Q04DX002 (ip), vehicle: carboxymethylcellulose (CMC) 96 % of control | dose: 400.0 mg/kg/injection, schedule: Q04DX003 (ip), vehicle: carboxymethylcellulose (CMC) 104 % of control

Oc1ccc(Br)cc1-c1nc2cc(Cl)c(Cl)cc2nc1-c1cc(Br)ccc1O
inactive: [6] 94 % of control | [7] 107 % of control | [8] 94 % of control | [9] 101 % of control | [10] 96 % of control | [11] 95 % of control

Nc1ccccc1CC(C(=O)O)c1ccc2c(c1)OCO2 (stereo not given)
inactive: dose: 75.0 mg/kg/injection, schedule: Q01DX001 (ip), vehicle: saline 105 % of control | dose: 75.0 mg/kg/injection, schedule: Q01DX009 (ip), vehicle: acetone 108 % of control | dose: 150.0 mg/kg/injection, schedule: Q01DX001 (ip), vehicle: saline 94 % of control | dose: 150.0 mg/kg/injection, schedule: Q01DX009 (ip), vehicle: acetone 103 % of control | dose: 300.0 mg/kg/injection, schedule: Q01DX001 (ip), vehicle: saline 89 % of control | dose: 300.0 mg/kg/injection, schedule: Q01DX009 (ip), vehicle: acetone 103 % of control

Nc1[nH]c(=O)[nH]c(=O)c1Br
inactive: [6] 97 % of control | [7] 100 % of control | [8] 103 % of control | [9] 100 % of control | [10] 101 % of control | [11] 97 % of control

Cc1cccc(C(=O)N(C)C(c2ccco2)P(=O)(c2ccccc2)c2ccccc2)c1 (stereo not given)
inactive: dose: 50.0 mg/kg/injection, schedule: Q01DX001 (ip), vehicle: carboxymethylcellulose (CMC) 103 % of control | dose: 50.0 mg/kg/injection, schedule: Q01DX009 (ip), vehicle: carboxymethylcellulose (CMC) 94 % of control and 92 % of control | [1] 104 % of control | [2] 94 % of control and 95 % of control | [3] 95 % of control | [4] 89 % of control

C=COc1c(Cl)cc(Cl)cc1Cl
inactive: [12] 93 % of control and 101 % of control | dose: 100.0 mg/kg/injection, schedule: Q04DX002 (ip), vehicle: saline with Tween-80 105 % of control and 107 % of control | [13] 101 % of control and 102 % of control | dose: 200.0 mg/kg/injection, schedule: Q04DX002 (ip), vehicle: saline with Tween-80 97 % of control and 98 % of control | [14] 100 % of control and 104 % of control | dose: 400.0 mg/kg/injection, schedule: Q04DX002 (ip), vehicle: saline with Tween-80 94 % of control and 101 % of control

Cc1ccc(S(=O)(=O)OC2CCC(=O)C3CC4(CCC23)OCCO4)cc1 (stereo not given)
inactive: dose: 100.0 mg/kg/injection, schedule: Q01DX001 (ip), vehicle: saline with Tween-80 91 % of control | dose: 200.0 mg/kg/injection, schedule: Q01DX001 (ip), vehicle: saline with Tween-80 87 % of control | dose: 400.0 mg/kg/injection, schedule: Q01DX001 (ip), vehicle: saline with Tween-80 95 % of control

CCCn1c(=S)[nH]c2ccccc2c1=O
inactive: dose: 100.0 mg/kg/injection, schedule: Q01DX009 (ip), vehicle: saline 95 % of control | dose: 100.0 mg/kg/injection, schedule: Q04DX003 (ip), vehicle: saline 88 % of control | dose: 200.0 mg/kg/injection, schedule: Q01DX009 (ip), vehicle: saline 107 % of control | dose: 200.0 mg/kg/injection, schedule: Q04DX003 (ip), vehicle: saline 86 % of control | dose: 400.0 mg/kg/injection, schedule: Q01DX009 (ip), vehicle: saline 101 % of control | dose: 400.0 mg/kg/injection, schedule: Q04DX003 (ip), vehicle: saline 96 % of control

O=C(Cc1ccccc1)c1ccc(O)cc1
inactive: [7] 102 % of control | [9] 102 % of control | [11] 88 % of control

CCNC(=O)c1c2ccccc2nc2c1c(C)c(C)c1ccccc12
inactive: [7] 108 % of control | [9] 112 % of control | [11] 106 % of control

O=Nc1ccc(O)cc1
inactive: dose: 25.0 mg/kg/injection, schedule: Q01DX009 (ip), vehicle: Klucel (hydroxypropylcellulose) (HPC) 96 % of control | dose: 25.0 mg/kg/injection, schedule: Q04DX002 (ip), vehicle: Klucel (hydroxypropylcellulose) (HPC) 104 % of control | dose: 25.0 mg/kg/injection, schedule: Q04DX003 (ip), vehicle: Klucel (hydroxypropylcellulose) (HPC) 102 % of control | dose: 50.0 mg/kg/injection, schedule: Q01DX009 (ip), vehicle: Klucel (hydroxypropylcellulose) (HPC) 102 % of control and 103 % of control | dose: 50.0 mg/kg/injection, schedule: Q04DX002 (ip), vehicle: Klucel (hydroxypropylcellulose) (HPC) 100 % of control | dose: 50.0 mg/kg/injection, schedule: Q04DX003 (ip), vehicle: Klucel (hydroxypropylcellulose) (HPC) 98 % of control | [6] 112 % of control and 123 % of control | dose: 100.0 mg/kg/injection, schedule: Q04DX002 (ip), vehicle: Klucel (hydroxypropylcellulose) (HPC) 104 % of control | [7] 100 % of control | [8] 100 % of control and 110 % of control | dose: 200.0 mg/kg/injection, schedule: Q04DX002 (ip), vehicle: Klucel (hydroxypropylcellulose) (HPC) 103 % of control | [9] 104 % of control

COC(=O)c1cc(C)cc([N+](=O)[O-])c1C
inactive: dose: 50.0 mg/kg/injection, schedule: Q01DX001 (ip), vehicle: saline 91 % of control | [15] 111 % of control | [16] 100 % of control | [17] 102 % of control

CC1CCN(c2ccc([N+](=O)[O-])cc2[N+](=O)[O-])CC1
inactive: [6] 99 % of control | [7] 104 % of control | [8] 99 % of control | [9] 98 % of control | [11] 103 % of control

OC1CC2C=CC1C2 (stereo not given)
inactive: [1] 93 % of control | [15] 107 % of control | [3] 95 % of control | [16] 88 % of control | [5] 101 % of control | [17] 109 % of control

CC(=O)Oc1cccc(OC(C)=O)c1OC(C)=O
inactive: [6] 103 % of control | [7] 107 % of control | [8] 100 % of control | [9] 97 % of control | [10] 97 % of control | [11] 100 % of control

COc1cccc(/C=C2\N=C(c3ccccc3)OC2=O)c1
inactive: [12] 102 % of control | dose: 100.0 mg/kg/injection, schedule: Q04DX003 (ip), vehicle: saline with Tween-80 97 % of control | [13] 107 % of control | dose: 200.0 mg/kg/injection, schedule: Q04DX003 (ip), vehicle: saline with Tween-80 94 % of control | [14] 102 % of control and 90 % of control | dose: 400.0 mg/kg/injection, schedule: Q04DX003 (ip), vehicle: saline with Tween-80 93 % of control
